The text below walks through data of patent publication US7176239B2, “Methods and compositions for treatment of Ataxia-telangeictasia” (priority 2003, dated 2007).

For data set [1], the system named is AT cells (AT22). Nature of the data set: Colony forming-efficiency assay, cell survival with increasing CuCl2. The format is cell-based, human. The settings on record: AT22 versus VA13 cells, increasing concentrations of CuCl2; FIG. 4A. As for the experimental part: Colony forming-efficiency experiments were performed as previously described (See R. E. Shackelford et al. The Ataxia telangiectasia Gene Product Is Required for Oxidative Stress-induced G1 and G2 Checkpoint Function in Human Fibroblasts, 276 J. BIOL. CHEM. 21951-21959 (2001)). In brief, exponentially growing cells were plated at 2,000 cells/100 mm tissue culture dish in 10 ml appropriate media, allowed to adhere 6 h, […], aspirin, diethylenetriaminepentaacetic acid (DTPA), hygromycin, and desferrioxamine mesylate were obtained from Sigma Chemical Corp (St. Louis, Mo.). Fetal calf serum (FCS) and Dulbecco's Modified Eagle's Medium (DMEM) were obtained from Invitrogen (Rockville, Md.). Culture dishes were obtained from Becton Dickinson (Franklin Lakes, N.J.).
Following treatment, the pates were washed 2× with media, the media replaced, and colonies fixed and stained after 14 days in culture by water: methanol addition (1:1) containing crystal violet (1 g/L). Colonies consisting of cell clusters containing greater than 50 cells were counted under a dissecting microscope. […] Standard deviations (error bars) were calculated from each experimental data point divided by the mean untreated value and averaged between experiments to obtain the mean standard deviation. […]

Data set [2] deals with AT cells (AT22, ATDM-1, ATDM-2). Nature of the data set: Colony forming-efficiency assay, long-term culture with iron chelating agent or quercetin. The settings on record: long-term culture (14 days) with increasing concentrations; FIG. 11A, 13A. The format is cell-based, human. As for the experimental part:
Preparation of cells is as described previously in Example 1. Colony forming-efficiency experiments were performed as previously described (See R. E. Shackelford et al. The Ataxia telangiectasia Gene Product Is Required for Oxidative Stress-induced G1 and G2 Checkpoint Function in Human Fibroblasts, 276 J. BIOL. CHEM. 21951–21959 (2001)). In brief, exponentially growing cells were plated at 2,000 cells/100 mm tissue culture dish in 10 ml appropriate media with an added iron chelating agent and cultured for 14 days. The resulting colonies were fixed and stained after 14 days culture by water:methanol addition (1:1) containing crystal violet (1 g/L). Colonies consisting of cell clusters containing greater than 50 cells were counted under a dissecting microscope. For experiments involving apoferritin or quercetin pre-exposure on t-BOOH resistance, the cells were allowed to adhere 6 h in increasing aopferritin or quercetin concentrations, washed 4× with 3 ml media, treated with 10 mM t-BOOH, washed 1× with 3 ml media, and allowed to grow for 14 days in 10 ml appropriate media. Data indicates survival as a percentage of untreated cells. […] Standard deviations (error bars) were calculated from each experimental data point divided by the mean untreated value and averaged between triplicate experiments to obtain the mean standard deviation. […]

The subject of data set [3] is normal cells (VA13, NHF1). Nature of the data set: Colony forming-efficiency assay, apoferritin/quercetin pretreatment then t-BOOH toxicity. The format is cell-based, human. The note with it: 6 h pretreatment with increasing concentrations, then 10 mM t-BOOH, FIG. 12A, 14A. As for the experimental part:
(§1) Preparation of cells is as described previously in Example 1. Colony forming-efficiency experiments were performed as previously described (See R. E. Shackelford et al. The Ataxia telangiectasia Gene Product Is Required for Oxidative Stress-induced G1 and G2 Checkpoint Function in Human Fibroblasts, 276 J. BIOL. CHEM. 21951–21959 (2001)). In brief, exponentially growing cells were plated at 2,000 cells/100 mm tissue culture dish in 10 ml appropriate media with an added iron chelating agent and cultured for 14 days. The resulting colonies were fixed and stained after 14 days culture by water:methanol addition (1:1) containing crystal violet (1 g/L). Colonies consisting of cell clusters containing greater than 50 cells were counted under a dissecting microscope. For experiments involving apoferritin or quercetin pre-exposure on t-BOOH resistance, the cells were allowed to adhere 6 h in increasing aopferritin or quercetin concentrations, washed 4× with 3 ml media, treated with 10 mM t-BOOH, washed 1× with 3 ml media, and allowed to grow for 14 days in 10 ml appropriate media. Data indicates survival as a percentage of untreated cells. The AT22 and VA13 tumor cell lines were used at passages 20–40. The primary NHF1, ATDM-1, and ATDM-2 cell strains were used at passages 6–19. All experiments were done at least twice in triplicate. Standard deviations (error bars) were calculated from each experimental data point divided by the mean untreated value and averaged between triplicate experiments to obtain the mean standard deviation. (FIGS. 11A–14C).

In data set [4] the test system is AT cells (AT22, ATDM-1, ATDM-2). The data set is described as above. The format is cell-based, human. The settings on record: 6 h pretreatment with increasing concentrations, then 10 mM t-BOOH, FIG. 12A, 14A. As to the method:
as §1

Data set [5] has as its system AT cells. The settings on record: AT cells treated with the antioxidant; Gatei et al. 2001; cited from earlier work.
Data set [6] relates to AT cells (AT22, ATDM-1, ATDM-2). Put plainly: Colony forming-efficiency assay, desferrioxamine/aspirin pretreatment then t-BOOH toxicity. The note with it: for resistance to the toxic effects of t-BOOH exposure versus length of pretreatment / resistance to the toxic effects of t-BOOH versus concentration of pretreatment agent: AT22 cells; for resistance to the toxic effects of t-BOOH exposure versus length of pretreatment / resistance to t-BOOH toxicity (cell survival, percentage of untreated cells): desferrioxamine 100 μM, aspirin 0.3 mM; for resistance to the toxic effects of t-BOOH exposure versus length of pretreatment: FIG. 9; for resistance to the toxic effects of t-BOOH versus concentration of pretreatment agent: increasing concentrations of desferrioxamine or aspirin, FIG. 10A/10B; for resistance to t-BOOH toxicity (cell survival, percentage of untreated cells): pretreatment, increasing concentrations of t-BOOH, FIG. 8A. Type of data set: cell-based, human. As for the experimental part:
Colony forming-efficiency experiments were performed as previously described (See R. E. Shackelford et al. The Ataxia telangiectasia Gene Product Is Required for Oxidative Stress-induced G1 and G2 Checkpoint Function in Human Fibroblasts, 276 J. BIOL. CHEM. 21951-21959 (2001)). In brief, exponentially growing cells were plated at 2,000 cells/100 mm tissue culture dish in 10 ml appropriate media, allowed to adhere 6 h, and treated 15 min with varying concentrations of t-BOOH or FeCl2 FeCl2, aspirin, diethylenetriaminepentaacetic acid (DTPA), hygromycin, and desferrioxamine mesylate were obtained from Sigma Chemical Corp (St. Louis, Mo.). Fetal calf serum (FCS) and Dulbecco's Modified Eagle's Medium (DMEM) were obtained from Invitrogen (Rockville, Md.). Culture dishes were obtained from Becton Dickinson (Franklin Lakes, N.J.).
Following treatment, the pates were washed 2× with media, the media replaced, and colonies fixed and stained after 14 days in culture by water: methanol addition (1:1) containing crystal violet (1 g/L). Colonies consisting of cell clusters containing greater than 50 cells were counted under a dissecting microscope. Unless otherwise noted, where desferrioxamine and/or aspirin pretreatment was employed, the cells were plated in desferrioxamine, aspirin, or desferrioxamine and aspirin, and allowed to adhere for 6 h. The plates were then washed 4× with media and treated with t-BOOH as above. Data indicates survival as a percentage of untreated cells. The AT22 and VA13 tumor cell lines were used at passages 20–40. The primary NHF1, ATDM-1, and ATDM-2 cell strains were used at passages 6–18. pEBS7 and pEBS7-YZ5 cells were used at passages 15–20. All experiments were done at least twice in triplicate. Standard deviations (error bars) were calculated from each experimental data point divided by the mean untreated value and averaged between experiments to obtain the mean standard deviation. (FIGS. 6–10B).

For data set [7], the system named is ATDM-1, and ATDM-2 cells. Put plainly: Mitotic delay assay (mitotic index after FeCl2 treatment). The format is cell-based, human. The settings on record: increasing concentrations of FeCl2, 15 min treatment, 2 h culture; NHF1 cells for comparison; fluorescence microscopy; FIG. 3. As for the experimental part: Mitotic delay assays were performed as previously described (See R. E. Shackelford et al. The Ataxia telangiectasia Gene Product Is Required for Oxidative Stress-induced G1 and G2 Checkpoint Function in Human Fibroblasts, 276 J. BIOL. CHEM. 21951–21959 (2001)). In brief, cells were plated onto 100 mm tissue culture plates and incubated 48–72 h (to approximately 50% confluency). The cells were then treated with FeCl2 for 15 m as in the colony forming-efficiency assay, washed 2× with media, cultured 2 h, and the media was removed. The cells were fixed in 5 ml cold methanol for 10 min and air-dried. The cells were stained with 0.2 μg/ml 4′,6-diamidino-2-phenylindole (DAPI) in water and examined by fluorescence microscopy. The percentage of mitotic cells (mitotic delay) was determined by counts of 5,000 cells. Mitotic delay experiments were performed in triplicate and the standard deviations were calculated as in the colony forming-efficiency assays. (FIG. 3).

Where a name gives a salt, the structure may show the parent alone.

On to `[Cl][Cu][Cl]` [CuCl2], for which the “cell survival (percentage of untreated cells), sensitivity to CuCl2” value in data set [1] is on record as “increased sensitivity”.
On to apoferritin, for which, in data set [2], the “plating efficiency (cell survival, percentage of untreated cells)” value is listed as “increases the plating efficiency”. Further, the “resistance to t-BOOH toxicity (cell survival, percentage of untreated cells)” value in data set [3] and in data set [4] was “increased resistance to t-BOOH toxicity” throughout.
`O=c1c(O)c(-c2ccc(O)c(O)c2)oc2cc(O)cc(O)c12` [quercetin]: in data set [2], the “plating efficiency (cell survival, percentage of untreated cells)” value is “increases the plating efficiency”. Moreover, the “resistance to t-BOOH toxicity (cell survival, percentage of untreated cells)” value in data set [3] and in data set [4] was “increased resistance to t-BOOH toxicity” in each case.
In the case of `O=C(O)CCCCC1CCSS1` (stereo not drawn) [a-lipoic acid], in data set [5], the genotoxic stress-induced proteins result is “lowered”.
For the compound `CC(=O)Oc1ccccc1C(=O)O` [aspirin], in data set [6], the “resistance to the toxic effects of t-BOOH exposure versus length of pretreatment” value was “increases with longer exposure”; the “resistance to the toxic effects of t-BOOH versus concentration of pretreatment agent” value is “increase the resistance”; the “resistance to t-BOOH toxicity (cell survival, percentage of untreated cells)” value is given as “increased resistance to t-BOOH toxicity”.
As to `[Cl][Fe][Cl]` [FeCl2], in data set [7], the “mitotic activity (percentage of the mitotic index of the mock-treated population), G2 checkpoint” value is “induces a pATM-dependent G2 checkpoint”.
As to `CC(=O)N(O)CCCCCNC(=O)CCC(=O)N(O)CCCCCNC(=O)CCC(=O)N(O)CCCCCN` [desferrioxamine, desferrioxamine mesylate], in data set [6], the “resistance to the toxic effects of t-BOOH exposure versus length of pretreatment” value is “increases with longer exposure”; the “resistance to the toxic effects of t-BOOH versus concentration of pretreatment agent” value is reported as “increase the resistance”; the “resistance to t-BOOH toxicity (cell survival, percentage of untreated cells)” value was “increased resistance to t-BOOH toxicity”.
